Data from ChEMBL document CHEMBL1124229, “Spiro hydantoin aldose reductase inhibitors” (J Med Chem, 1988).

How the values were obtained:
[1] = molecular target: T1, Aldo-keto reductase family 1 member B1 (Bos taurus, UniProt P16116); assay: In vitro inhibition of partially purified calf lens aldose reductase
[2] = species on record: Rattus norvegicus; assay: Ability to cause 50% reduction in sorbitol levels of sciatic nerve of streptozotocinized rats was determined; type: functional
[3] = molecular target: T1, Aldo-keto reductase family 1 member B1; assay: Inhibition of partially purified calf lens aldose reductase; value ranges from 10E-4 to 10e-5 M
[4] = molecular target: T1, Aldo-keto reductase family 1 member B1; assay: In vitro inhibition of partially purified calf lens aldose reductase; value ranges from 10E-5 to 10E-6
[5] = species on record: Rattus norvegicus; assay: Dose causing 50% reduction in sorbitol accumulation in sciatic nerves of streptozotocinized rats, (tid)
[6] = pKa in DMF/H2O was measured; type: physicochemical
[7] = species on record: Rattus norvegicus; assay: 50% reduction in sorbitol accumulation in isolated sciatic nerves incubated in the presence of high glucose concentration; type: functional; conditions: Sciatic nerve
[8] = molecular target: T1, Aldo-keto reductase family 1 member B1; assay: In vitro inhibitory activity towards partially purified calf lens aldose reductase; value ranges from 10E-6 - 10E-7
[9] = Rattus norvegicus, Sciatic nerve, read-out: ED50

Compound	IC50 [1] [µM]	ED50 [2, 9] [mg/kg]	also measured
O=C1NC(=O)C2(CCS(=O)(=O)c3c(Cl)cc(Cl)cc32)N1 (configuration not stated)	0.1	> 1.5	
CC(C)(C)c1ccc2c(c1)C1(CCO2)NC(=O)NC1=O (configuration not stated)			IC50 [3]: 100 µM
O=C1NC(=S)NC12CCCc1ccccc12 (configuration not stated)	> 100		
c1ccc2c(c1)CCC21CCNC1 (configuration not stated)	> 100	> 25	
O=C1NC(=O)C2(CCCc3occc32)N1 (configuration not stated)		25	
Cc1ccc2c(c1)C1(CCO2)NC(=O)NC1=O (configuration not stated)		5	IC50 [4]: 10 µM
O=C1NC(=O)[C@]2(CCOc3ccc(F)cc32)N1		25	
COc1ccc2c(c1)C1(CCS2)NC(=O)NC1=O (configuration not stated)	10	> 5	
O=C1NC(=O)C2(CCc3cc4c(cc32)OCO4)N1 (configuration not stated)		> 5	IC50 [4]: 10 µM
O=C1NC(=O)C2(CCOc3ccc(Cl)cc32)C(=O)N1		> 10	IC50 [3]: 100 µM
CC(C)(C)c1ccc2c(c1)C1(CCS2)NC(=O)NC1=O (configuration not stated)			IC50 [3]: 100 µM
O=C1NC(=O)[C@@]2(CCOc3ccc(F)cc32)N1 (stereo in doubt; 32) [SORBINIL]			ED50 [2]: 0.75 mg/kg
O=C1NC(=O)C2(CCOc3ccc(Cl)cc32)O1 (configuration not stated)		> 1.5	
O=C1NC(=O)C2(CCCc3ncccc32)N1 (configuration not stated)	10	10	
CC1CCC2(NC(=O)NC2=O)c2ccccc21 (configuration not stated)	100	> 25	
Cc1ccc(C)c2c1OCCC21NC(=O)NC1=O (configuration not stated)	1	> 1.5	
O=C1NC(=O)[C@@]2(CCOc3ccc(Cl)cc32)O1	0.1	2.5	ED50 [5]: 1e-05 M/kg; pKa [6]: 5.6; IC50 [7]: 10 µM
CN(C)S(=O)(=O)c1ccc2c(c1)C1(CCO2)NC(=O)NC1=O (configuration not stated)	100	> 5	
O=C1NC(=O)C2(CCSc3cc(Cl)ccc32)N1 (configuration not stated)	1	> 1.5	
O=C1NC(=O)C2(CCOc3c(-c4ccccc4)cccc32)N1 (configuration not stated)		10	
O=C1NC(=O)C2(CCSc3c(Cl)cc(Cl)cc32)N1 (configuration not stated)	< 0.1		
O=C1NC(=O)C2(CCSc3ccc(F)cc32)N1 (configuration not stated)		1.5	IC50 [8]: 1 µM

Compound	IC50 [1] [µM]	ED50 [2, 9] [mg/kg]	also measured
O=C(O)C1CCOc2c(Cl)cc(Cl)cc21 (configuration not stated)	10		
O=C1NC(=O)C2(CCSc3cc(Cl)c(Cl)cc32)N1 (configuration not stated)	< 0.1	2.5	
COc1ccc2c(c1)C1(CC2)NC(=O)NC1=O (configuration not stated)	10	10	
O=C1NC(=O)C2(CCCC3CCCCC32)N1 (configuration not stated)	> 100	< 25	
Cc1cc(C)c2c(c1)C1(CCO2)NC(=O)NC1=O (configuration not stated)	1	> 1.5	
O=C1NC(=O)C2(CCn3c(=O)ccc4cc(Cl)cc2c43)N1 (configuration not stated)	< 0.1	> 1.5	
COc1cccc2c3c(ccc12)C1(CCO3)NC(=O)NC1=O (configuration not stated)	0.1	> 1.5	
O=C1NC(=O)C2(CCOc3ccc4ccccc4c32)N1 (configuration not stated)	10	> 1.5	
O=C1NC(=O)C(c2ccccc2)(c2ccccc2)N1 [PHENYTOIN]	> 100	> 250	
O=C1NCC2(CCOc3ccc(Cl)cc32)N1 (configuration not stated)	10	> 10	
O=C1NC(=O)C2(N1)c1ccccc1CCC2c1ccccc1 (configuration not stated)	> 100	> 25	
O=C(O)CC1(CC(=O)O)CCCC1		~500	IC50 [8]: 1 µM; IC50 [4]: 10 µM
O=C1NC(=O)C2(CC[S+]([O-])c3ccc(F)cc32)N1 (configuration not stated)		> 1.5	IC50 [8]: 1 µM
O=C1NCC2(CCc3ccccc32)N1 (configuration not stated)	> 100		
O=C1NC(=O)C2(CCCCc3ccccc32)N1 (configuration not stated)	> 100	> 25	
CN1CCC2(NC(=O)NC2=O)c2ccccc21 (configuration not stated)		> 25	IC50 [3]: 100 µM
COc1ccc2c(c1)CCC21NC(=O)NC1=O (configuration not stated)	10	> 25	
O=C1NC(=O)C2(CCOc3ccccc32)N1 (configuration not stated)	10	5	
O=C1NC(=O)C2(CCSc3c(Cl)ccc(Cl)c32)N1 (configuration not stated)	> 100		
CN1C(=O)N(C)C2(CCCc3ccccc32)C1=O (configuration not stated)	> 100	25	
NC(=O)NC(=O)C1CCc2ccccc21 (configuration not stated)	100	> 10	
O=C1NC(=O)C2(CCS(=O)(=O)c3ccc(F)cc32)N1 (configuration not stated)		2.5	IC50 [8]: 1 µM

Compound	IC50 [1] [µM]	ED50 [2, 9] [mg/kg]	also measured
COc1ccc2c(c1)C1(CCO2)NC(=O)NC1=O (configuration not stated)		> 2.5	IC50 [4]: 10 µM
O=C1NC(=O)C2(CCOc3c(F)cccc32)N1 (configuration not stated)	< 100		
COc1cc2c(cc1OC)C1(CC2)NC(=O)NC1=O (configuration not stated)		10	IC50 [4]: 10 µM
O=CNC(=O)NC1CCc2ccccc21 (configuration not stated)	> 100	> 10	
O=C1NC(=O)C2(CCSc3ccc(Br)cc32)N1 (configuration not stated)		2.5	IC50 [8]: 1 µM
O=C1NC(=O)C2(CCOc3ccc(Oc4ccccc4)cc32)N1 (configuration not stated)		25	
O=C1NC(=O)[C@@]2(CCSc3ccc(F)cc32)N1	< 0.1	0.75	
O=C1NC(=O)C2(CCC(c3ccccc3)c3ccccc32)N1 (configuration not stated)		> 25	
CSc1ccc2c(c1)C1(CCO2)NC(=O)NC1=O (configuration not stated)	1	< 25	
O=C1NC(=O)C2(CCCc3[nH]ccc32)N1 (configuration not stated)	> 100	> 25	
O=C(O)C1CCCc2ccccc21 (configuration not stated)	> 100		
O=C1CC2(CCc3ccccc32)C(=O)N1 (configuration not stated)	> 100	> 2.5	
O=C1N=C(O)O[C@@]12CCOc1ccc(Cl)cc12			IC50 [3]: 100 µM
NC(=O)c1ccc2c(c1)C1(CCO2)NC(=O)NC1=O (configuration not stated)		> 100	IC50 [3]: 100 µM
O=C1CC2(CCCc3ccccc32)C(=O)N1 (configuration not stated)	> 100	5	
O=C1NC(=O)C2(CCOc3ccc(-c4ccccc4)cc32)N1 (configuration not stated)	< 100	> 1.5	
O=C1CC2(CCOc3ccc(Cl)cc32)C(=O)N1 (configuration not stated)	< 100	> 5	
O=C(O)C1CCSc2ccc(Cl)cc21 (configuration not stated)	< 100		
O=C1NC(=O)C2(CCc3ccccc32)O1 (configuration not stated)		> 25	
O=C1NC(=O)C2(CCOc3c(Cl)cccc32)N1 (configuration not stated)	1	> 1.5	
O=C1NC(=O)[C@]2(CCSc3ccc(F)cc32)N1			IC50 [4]: 10 µM
COc1cc2c(cc1OC)C1(CCC2)NC(=O)NC1=O (configuration not stated)		> 5	IC50 [3]: 100 µM

Compound	IC50 [1] [µM]	ED50 [2, 9] [mg/kg]	also measured
O=C1NC(=O)C2(CCc3ccc(F)cc32)N1 (configuration not stated)		5	IC50 [3]: 100 µM
O=C1NC(=O)[C@@]2(CCOc3ccc(F)cc32)N1 (stereo in doubt; 115) [SORBINIL]			ED50 [5]: 1e-05 M/kg; pKa [6]: 8.7; IC50 [7]: 1 µM; ED50 [2]: 0.25 mg/kg
Cc1cc(Cl)cc2c1OCCC2C(=O)O (configuration not stated)			IC50 [4]: 10 µM
O=C1CC2(CCCc3ccccc32)CN1 (configuration not stated)	> 100	> 25	
O=C(O)C1Cc2ccccc2C1	100		
O=C(O)C1CCSc2cc(Cl)c(Cl)cc21 (configuration not stated)	10		
COc1ccc(Cl)c2c1C1(CCO2)NC(=O)NC1=O (configuration not stated)	> 100		
O=C1NCNC12CCCc1ccccc12 (configuration not stated)	> 100	25	
O=C(O)C1CCOc2ccccc21 (configuration not stated)	100		
O=C1NC(=O)C2(CCC(C(=O)O)c3ccccc32)N1 (configuration not stated)	> 100		
O=C1NC(=O)C2(CCOc3cc(Cl)c(Cl)cc32)N1 (configuration not stated)	< 0.1	< 1.5	
CC1CCc2ccccc2C12NC(=O)NC2=O (configuration not stated)	100	> 25	
O=C(O)C1CCc2ccccc21 (configuration not stated)	> 100		
COc1ccc(Cl)cc1C1(C)NC(=O)NC1=O (configuration not stated)	> 100		
Cc1cc(C)c2c(c1C)OCCC21NC(=O)NC1=O (configuration not stated)	1		
Cc1cc2c(n1C)CCCC21NC(=O)NC1=O (configuration not stated)	> 100	> 25	
COc1cccc2c1CCCC21NC(=O)NC1=O (configuration not stated)	10	> 25	
O=C1NC(=O)C2(CCCCC2)N1	100	> 25	
O=C1NC(=O)C2(CCSc3c(Cl)cccc32)N1 (configuration not stated)	100	> 1.5	
O=C1NC(=O)C2(CCOc3c2ccc2cccnc32)N1 (configuration not stated)	10	> 1.5	
O=C1NC(=O)C2(CCOc3c(Cl)cc(Cl)cc32)N1 (configuration not stated)	< 0.1	0.25	
O=C1NC(=O)C2(CCCC2c2ccccc2)N1 (configuration not stated)	> 100	> 25	

Compound	IC50 [1] [µM]	ED50 [2, 9] [mg/kg]	also measured
Cc1cc(Cl)cc2c1OCCC21NC(=O)NC1=O (configuration not stated)	< 0.1	< 1.5	
O=C(O)C1CCOc2c1cc(Cl)c1ccccc21 (configuration not stated)	1	> 25	
COc1ccc(Cl)c2c1CCCC21NC(=O)NC1=O (configuration not stated)	> 100	> 25	
O=C1NC(=O)C2(CCCc3sccc32)N1 (configuration not stated)	100	25	
O=C(O)C1CCSc2ccccc21 (configuration not stated)	100		
O=C1NC(=O)C2(CCS(=O)(=O)c3ccccc32)N1 (configuration not stated)		20	IC50 [4]: 10 µM
O=C1CCC2(CCCc3ccccc32)C(=O)N1 (configuration not stated)	> 100	> 25	
O=C1NC(=O)C2(CCc3ccc(O)cc32)N1 (configuration not stated)		> 10	IC50 [3]: 100 µM
O=C1NC(=O)C2(Cc3ccccc3C2)N1	> 100	> 25	
O=C1NC(=O)C2(CCOc3c2ccc2ccccc32)N1 (configuration not stated)	< 100	> 1.5	
NC(=O)C1(NC=O)CCc2ccccc21 (configuration not stated)	100	> 10	
S=C1NC(=S)C2(CCCc3ccccc32)N1 (configuration not stated)	> 100	> 25	
O=C1NC(=O)C2(CCOc3cc(C(F)(F)F)ccc32)N1 (configuration not stated)	1	5	
O=C1NC(=O)C2(CCCc3ccccc32)O1 (configuration not stated)	10	> 50	
O=C1NC(=O)C2(CCOc3ccc(CN4CCCCC4)cc32)N1 (configuration not stated)	100		
O=C1NC(=O)C2(CCSc3ccc(Cl)cc32)N1 (configuration not stated)		2.5	IC50 [8]: 1 µM
O=C1NC(=O)C2(CCOc3ccc(Br)cc32)N1 (configuration not stated)		< 1.5	IC50 [8]: 1 µM
COc1cc2c(c(OC)c1OC)C1(CC2)NC(=O)NC1=O (configuration not stated)	100		
CS(=O)(=O)c1ccc2c(c1)C1(CCO2)NC(=O)NC1=O (configuration not stated)			IC50 [3]: 100 µM
